PubChem BioAssay AID2060887 (Molecular Pharmacology Branch, DTP, NCI, 2025)

System: 782815-120-R-J1-PDC complex spheroid viability
Experiment: Anticancer human tumor 782815-120-R-J1-PDC patient-derived colon adenocarcinoma cell line growth inhibition [RAS]
Conditions: for IC50: curve of first compound; for viability, T/C: stronger effect = lower value; active means viability on the fitted dose curve at most 10% of control; inactive means the rest
Procedure, shortened: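 Agents were tested in combination matrices in half-log decrements from a top concentration at or near clinical Cmax (10 microM if undetermined). Targets were multi-cell spheroids of tumour lines plus HUVEC and MSC stromal cells.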

[1] = second compound 0.000949 µM, first compound 0.00316 µM
[2] = second compound 0.000949 µM, first compound 0.01 µM
[3] = second compound 0.000949 µM, first compound 0.0316 µM
[4] = second compound 0.000949 µM, first compound 0.1 µM
[5] = second compound 0.000949 µM, first compound 0.316 µM
[6] = second compound 0.000949 µM, first compound 1 µM
[7] = second compound 0.003 µM, first compound 0.00316 µM
[8] = second compound 0.003 µM, first compound 0.01 µM
[9] = second compound 0.003 µM, first compound 0.0316 µM
[10] = second compound 0.003 µM, first compound 0.1 µM
[11] = second compound 0.003 µM, first compound 0.316 µM
[12] = second compound 0.003 µM, first compound 1 µM
[13] = second compound 0.00949 µM, first compound 0.00316 µM
[14] = second compound 0.00949 µM, first compound 0.01 µM
[15] = second compound 0.00949 µM, first compound 0.0316 µM
[16] = second compound 0.00949 µM, first compound 0.1 µM
[17] = second compound 0.00949 µM, first compound 0.316 µM
[18] = second compound 0.00949 µM, first compound 1 µM
[19] = second compound 0.03 µM, first compound 0.00316 µM
[20] = second compound 0.03 µM, first compound 0.01 µM
[21] = second compound 0.03 µM, first compound 0.0316 µM
[22] = second compound 0.03 µM, first compound 0.1 µM
[23] = second compound 0.03 µM, first compound 0.316 µM
[24] = second compound 0.03 µM, first compound 1 µM
[25] = second compound 0.0949 µM, first compound 0.00316 µM
[26] = second compound 0.0949 µM, first compound 0.01 µM
[27] = second compound 0.0949 µM, first compound 0.0316 µM
[28] = second compound 0.0949 µM, first compound 0.1 µM
[29] = second compound 0.0949 µM, first compound 0.316 µM
[30] = second compound 0.0949 µM, first compound 1 µM
[31] = second compound 0.3 µM, first compound 0.00316 µM
[32] = second compound 0.3 µM, first compound 0.01 µM
[33] = second compound 0.3 µM, first compound 0.0316 µM
[34] = second compound 0.3 µM, first compound 0.1 µM
[35] = second compound 0.3 µM, first compound 0.316 µM
[36] = second compound 0.3 µM, first compound 1 µM
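Further: spheroids exposed to compounds for 7 days before reading.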
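Wherever viability, T/C is given: 100% = DMSO vehicle control viability.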

C=CC(=O)Nc1cc(Nc2nccc(-c3cn(C)c4ccccc34)n2)c(OC)cc1N(C)CCN(C)C + CCn1c(-c2cc(N3CCN(C)CC3)cnc2C(C)OC)c2c3cc(ccc31)-c1csc(n1)CC(NC(=O)C1CC1C)C(=O)N1CCCC(N1)C(=O)OCC(C)(C)C2
inactive: viability, T/C [1] 71.5% | viability, T/C [2] 71.2% | viability, T/C [3] 79% | viability, T/C [4] 74% | viability, T/C [5] 76.4% | viability, T/C [6] 68.6% | viability, T/C [7] 59.3% | viability, T/C [8] 60.3% | viability, T/C [9] 55.6% | viability, T/C [10] 55.7% | viability, T/C [11] 54.7% | viability, T/C [12] 47.9% | viability, T/C [13] 31.2% | viability, T/C [14] 35.6% | viability, T/C [15] 34.2% | viability, T/C [16] 29.6% | viability, T/C [17] 28.3% | viability, T/C [18] 27.8% | viability, T/C [19] 17.8% | viability, T/C [20] 23.9% | viability, T/C [21] 18.6% | viability, T/C [22] 17.5% | viability, T/C [23] 19.7% | viability, T/C [24] 18.2% | viability, T/C [25] 16.1% | viability, T/C [26] 16.6% | viability, T/C [27] 14.8% | viability, T/C [28] 16.2% | viability, T/C [29] 15.1% | viability, T/C [30] 19.5% | viability, T/C [31] 17.5% | viability, T/C [32] 16.6% | viability, T/C [33] 16.8% | viability, T/C [34] 12.5% | viability, T/C [35] 16.3% | viability, T/C [36] 18.8%
< 3.16 nM: IC50 (second compound 0.00949 µM) | IC50 (second compound 0.03 µM) | IC50 (second compound 0.0949 µM) | IC50 (second compound 0.3 µM)
> 1000 nM: IC50 (second compound 0.000949 µM) | IC50 (second compound 0.003 µM)

O=C(c1ccc(F)c(F)c1Nc1ccc(I)cc1F)N1CC(O)([C@@H]2CCCCN2)C1 + CCn1c(-c2cc(N3CCN(C)CC3)cnc2C(C)OC)c2c3cc(ccc31)-c1csc(n1)CC(NC(=O)C1CC1C)C(=O)N1CCCC(N1)C(=O)OCC(C)(C)C2
5.51 nM: IC50 (second compound 0.003 µM)
24.1 nM: IC50 (second compound 0.000949 µM)
< 3.16 nM: IC50 (second compound 0.00949 µM) | IC50 (second compound 0.03 µM) | IC50 (second compound 0.0949 µM) | IC50 (second compound 0.3 µM)
inactive: viability, T/C [1] 75.1% | viability, T/C [2] 64.1% | viability, T/C [3] 46.5% | viability, T/C [4] 23.2% | viability, T/C [5] 13% | viability, T/C [7] 59.4% | viability, T/C [8] 37.5% | viability, T/C [9] 32.3% | viability, T/C [10] 17.9% | viability, T/C [13] 28.2% | viability, T/C [14] 24.9% | viability, T/C [15] 13.7% | viability, T/C [19] 12.3%
active: viability, T/C [6] 1.01% | viability, T/C [11] 6.64% | viability, T/C [12] 0.53% | viability, T/C [16] 8.14% | viability, T/C [17] 1.43% | viability, T/C [18] 0.48% | viability, T/C [20] 9.75% | viability, T/C [21] 3.83% | viability, T/C [22] 1.67% | viability, T/C [23] 0.8% | viability, T/C [24] 0.47% | viability, T/C [25] 5.71% | viability, T/C [26] 2.85% | viability, T/C [27] 2.06% | viability, T/C [28] 1.08% | viability, T/C [29] 0.77% | viability, T/C [30] 0.49% | viability, T/C [31] 6.59% | viability, T/C [32] 1.81% | viability, T/C [33] 1.42% | viability, T/C [34] 0.75% | viability, T/C [35] 0.63% | viability, T/C [36] 0.61%
